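Tested at 5 concentrations; 48 h exposure; 96-well plates; endpoints linearly interpolated, else capped at highest concentration. TGI: total growth inhibition.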 Peptide text beside a SMILES is read from it. * marks the point of attachment. X34 = O=C(c1ccc(-c2ccc(Cl)cc2Cl)o1)*
Legend:
Assay in all cases: NCI anticancer screen, dose series, 48 h
OVCAR-5 ovarian = system: OVCAR-5 ovarian
UO-31 renal = system: UO-31 renal
MALME-3M melanoma = system: MALME-3M melanoma
CCRF-CEM leukemia = system: CCRF-CEM leukemia
OVCAR-3 ovarian = system: OVCAR-3 ovarian
OVCAR-4 ovarian = system: OVCAR-4 ovarian
EKVX NSCLC = system: EKVX NSCLC
CAKI-1 renal = system: CAKI-1 renal
OVCAR-8 ovarian = system: OVCAR-8 ovarian
HT29 colon = system: HT29 colon
A498 renal = system: A498 renal

CC(ON1[C@](C)(c2ccccc2)CC[C@@]1(C)c1ccccc1)c1ccccc1 (stereo partly specified) was tested, and the TGI (OVCAR-5 ovarian) was greater than 100 µM, the TGI (UO-31 renal) was greater than 100 µM and the TGI (MALME-3M melanoma) was greater than 100 µM. For the same compound, the TGI (CCRF-CEM leukemia) was 52.5 µM, the TGI (OVCAR-3 ovarian) was greater than 100 µM and the TGI (OVCAR-4 ovarian) was greater than 100 µM. It also gave a TGI (EKVX NSCLC) of 77.9 µM, a TGI (CAKI-1 renal) greater than 100 µM and a TGI (OVCAR-8 ovarian) greater than 100 µM. For the same compound, the TGI (HT29 colon) was greater than 100 µM.

Work on CCOc1ccccc1Nc1ccc(N)cc1S(=O)(=O)O yielded a TGI (OVCAR-5 ovarian) greater than 100 µM, a TGI (UO-31 renal) greater than 100 µM and a TGI (MALME-3M melanoma) greater than 100 µM. It also gave a TGI (A498 renal) greater than 100 µM, a TGI (OVCAR-3 ovarian) greater than 100 µM and a TGI (OVCAR-4 ovarian) greater than 100 µM. It also gave a TGI (EKVX NSCLC) greater than 100 µM, a TGI (CAKI-1 renal) greater than 100 µM and a TGI (HT29 colon) greater than 100 µM.

O=Cc1ccccc1CCn1c(=O)c2cc3c(=O)n(CCc4ccccc4C=O)c(=O)c3cc2c1=O was tested, and the TGI (UO-31 renal) was greater than 100 µM, the TGI (MALME-3M melanoma) was greater than 100 µM and the TGI (A498 renal) was greater than 100 µM. It also gave a TGI (CCRF-CEM leukemia) greater than 100 µM, a TGI (OVCAR-3 ovarian) greater than 100 µM and a TGI (OVCAR-4 ovarian) greater than 100 µM. The TGI (OVCAR-8 ovarian) was greater than 100 µM and the TGI (HT29 colon) was greater than 100 µM.

For COC(=O)C(CC(C)C)NC(=O)C(Cc1ccccc1)NC(=O)C1CCCN1C(=O)C(CO)NC(=O)c1ccc(-c2ccc(Cl)cc2Cl)o1 (stereo unspecified) (X34-SPFL-OMe; configuration not given here), the TGI (OVCAR-5 ovarian) was 50.4 µM, the TGI (UO-31 renal) was 65.2 µM and the TGI (MALME-3M melanoma) was greater than 100 µM. The TGI (A498 renal) was 76.5 µM, the TGI (CCRF-CEM leukemia) was greater than 100 µM and the TGI (OVCAR-4 ovarian) was greater than 100 µM. The TGI (CAKI-1 renal) was greater than 100 µM, the TGI (OVCAR-8 ovarian) was greater than 100 µM and the TGI (HT29 colon) was 40.7 µM.

With CCOc1cc(C2SCC(=O)N2c2ccc3c(c2)Oc2c(Cl)c4c(c(Cl)c2=N3)Oc2cc(N3C(=O)CSC3c3ccc(O)c(OCC)c3)ccc2N=4)ccc1O (stereo unspecified) the TGI (OVCAR-5 ovarian) was greater than 100 µM, the TGI (UO-31 renal) was greater than 100 µM and the TGI (A498 renal) was greater than 100 µM. It also gave a TGI (OVCAR-3 ovarian) greater than 100 µM, a TGI (OVCAR-4 ovarian) greater than 100 µM and a TGI (EKVX NSCLC) greater than 100 µM. It also gave a TGI (CAKI-1 renal) greater than 100 µM, a TGI (OVCAR-8 ovarian) greater than 100 µM and a TGI (HT29 colon) greater than 100 µM.

COc1ccc(C(=O)CCN(C)C)c2ccccc12 was tested, and the TGI (OVCAR-5 ovarian) was greater than 96.5 µM, the TGI (UO-31 renal) was 44.2 µM and the TGI (MALME-3M melanoma) was 34.4 µM. For the same compound, the TGI (A498 renal) was greater than 88.8 µM, the TGI (CCRF-CEM leukemia) was 11.8 µM and the TGI (OVCAR-3 ovarian) was 36.9 µM. The TGI (OVCAR-4 ovarian) was 65.1 µM, the TGI (EKVX NSCLC) was 55.8 µM and the TGI (CAKI-1 renal) was 17.4 µM. It also gave a TGI (OVCAR-8 ovarian) of 40.5 µM and a TGI (HT29 colon) of 66.7 µM.

Work on Cn1c2ccccc2c2c3c(c4c5ccccc5n(C5OC(CO)C(O)C(O)C5O)c4c21)C(=O)OC3=O (stereo unspecified) yielded a TGI (OVCAR-5 ovarian) greater than 100 µM, a TGI (UO-31 renal) greater than 100 µM and a TGI (MALME-3M melanoma) greater than 100 µM. For the same compound, the TGI (A498 renal) was greater than 100 µM, the TGI (CCRF-CEM leukemia) was greater than 100 µM and the TGI (OVCAR-3 ovarian) was greater than 100 µM. It also gave a TGI (OVCAR-4 ovarian) greater than 100 µM, a TGI (EKVX NSCLC) greater than 100 µM and a TGI (CAKI-1 renal) greater than 100 µM. The TGI (OVCAR-8 ovarian) was greater than 100 µM and the TGI (HT29 colon) was greater than 100 µM.

Work on CC[C@@H]1CSC(/C=C/C2OC3OC(C)(C)OC3C3OC(C)(C)OC23)=N1 (stereo partly specified) yielded a TGI (OVCAR-5 ovarian) of 22.8 µM, a TGI (UO-31 renal) of 22.8 µM and a TGI (MALME-3M melanoma) of 23.8 µM. For the same compound, the TGI (OVCAR-3 ovarian) was 16.7 µM, the TGI (OVCAR-4 ovarian) was 17.7 µM and the TGI (EKVX NSCLC) was 25.6 µM. For the same compound, the TGI (CAKI-1 renal) was 28.6 µM, the TGI (OVCAR-8 ovarian) was 23.8 µM and the TGI (HT29 colon) was 15.9 µM.

COc1cc(NC(C)=O)ccc1C(=O)N/N=C/c1ccco1 showed a TGI (OVCAR-5 ovarian) greater than 100 µM, a TGI (UO-31 renal) greater than 100 µM and a TGI (MALME-3M melanoma) greater than 100 µM. For the same compound, the TGI (A498 renal) was greater than 100 µM, the TGI (CCRF-CEM leukemia) was greater than 100 µM and the TGI (OVCAR-3 ovarian) was greater than 100 µM. For the same compound, the TGI (OVCAR-4 ovarian) was greater than 100 µM, the TGI (EKVX NSCLC) was greater than 100 µM and the TGI (CAKI-1 renal) was greater than 100 µM. For the same compound, the TGI (OVCAR-8 ovarian) was greater than 100 µM and the TGI (HT29 colon) was greater than 100 µM.

In the case of OCC(O)COCn1cc(Cn2ncc3c(NCc4ccccc4)ncnc32)nn1 (stereo unspecified), the TGI (OVCAR-5 ovarian) is reported as greater than 100 µM, the TGI (UO-31 renal) is reported as greater than 100 µM and the TGI (A498 renal) is reported as greater than 100 µM. The TGI (CCRF-CEM leukemia) was greater than 100 µM, the TGI (OVCAR-3 ovarian) was greater than 100 µM and the TGI (OVCAR-4 ovarian) was greater than 100 µM. The TGI (EKVX NSCLC) was greater than 100 µM, the TGI (CAKI-1 renal) was greater than 100 µM and the TGI (OVCAR-8 ovarian) was greater than 100 µM. For the same compound, the TGI (HT29 colon) was greater than 100 µM.

In the case of CC(C)CNCCc1ccccn1, the TGI (OVCAR-5 ovarian) is reported as greater than 100 µM, the TGI (UO-31 renal) is reported as greater than 100 µM and the TGI (MALME-3M melanoma) is reported as greater than 100 µM. For the same compound, the TGI (A498 renal) was greater than 100 µM, the TGI (CCRF-CEM leukemia) was greater than 100 µM and the TGI (OVCAR-3 ovarian) was greater than 100 µM. The TGI (OVCAR-4 ovarian) was greater than 100 µM, the TGI (EKVX NSCLC) was greater than 100 µM and the TGI (CAKI-1 renal) was greater than 100 µM. It also gave a TGI (OVCAR-8 ovarian) greater than 100 µM and a TGI (HT29 colon) greater than 100 µM.

In the case of Nc1ncnc2c1ncn2[C@@H]1O[C@H](COP(=O)(O)OP(=O)(O)OC[C@H]2O[C@@H](OCCCO)[C@H](O)[C@@H]2O)[C@@H](O)[C@H]1O, the TGI (OVCAR-5 ovarian) is reported as greater than 100 µM, the TGI (UO-31 renal) is reported as greater than 100 µM and the TGI (MALME-3M melanoma) is reported as greater than 100 µM. It also gave a TGI (A498 renal) greater than 100 µM, a TGI (CCRF-CEM leukemia) greater than 100 µM and a TGI (OVCAR-3 ovarian) greater than 100 µM. The TGI (OVCAR-4 ovarian) was greater than 100 µM, the TGI (EKVX NSCLC) was greater than 100 µM and the TGI (CAKI-1 renal) was greater than 100 µM. It also gave a TGI (OVCAR-8 ovarian) greater than 100 µM and a TGI (HT29 colon) greater than 100 µM.

Compound CC1(O)C2(c3ccccc3)CCC[N+]1(C)CC2 (stereo unspecified) has a TGI (OVCAR-5 ovarian) greater than 100 µM, a TGI (UO-31 renal) greater than 100 µM and a TGI (MALME-3M melanoma) greater than 100 µM. The TGI (A498 renal) was greater than 100 µM, the TGI (CCRF-CEM leukemia) was greater than 100 µM and the TGI (OVCAR-3 ovarian) was greater than 100 µM. It also gave a TGI (OVCAR-4 ovarian) greater than 100 µM, a TGI (CAKI-1 renal) greater than 100 µM and a TGI (OVCAR-8 ovarian) greater than 100 µM. The TGI (HT29 colon) was greater than 100 µM.

Compound CC(C)C1=CC2=CC[C@@H]3[C@](C)(CCC[C@@]3(C)C(=O)O)[C@H]2CC1 has a TGI (OVCAR-5 ovarian) greater than 100 µM, a TGI (UO-31 renal) greater than 82.7 µM and a TGI (MALME-3M melanoma) greater than 100 µM. The TGI (A498 renal) was greater than 100 µM, the TGI (CCRF-CEM leukemia) was greater than 100 µM and the TGI (OVCAR-3 ovarian) was 72.4 µM. For the same compound, the TGI (OVCAR-4 ovarian) was greater than 100 µM, the TGI (EKVX NSCLC) was greater than 89.3 µM and the TGI (CAKI-1 renal) was greater than 100 µM. It also gave a TGI (OVCAR-8 ovarian) greater than 100 µM and a TGI (HT29 colon) of 45.9 µM.

COc1ccc(C(=O)c2nc3ccccc3nc2N2CCN(c3ccccc3)CC2)cc1OC was tested, and the TGI (OVCAR-5 ovarian) was greater than 100 µM, the TGI (UO-31 renal) was greater than 100 µM and the TGI (MALME-3M melanoma) was greater than 100 µM. It also gave a TGI (A498 renal) greater than 100 µM, a TGI (CCRF-CEM leukemia) greater than 100 µM and a TGI (OVCAR-3 ovarian) greater than 100 µM. The TGI (OVCAR-4 ovarian) was greater than 100 µM, the TGI (EKVX NSCLC) was greater than 100 µM and the TGI (CAKI-1 renal) was greater than 100 µM. It also gave a TGI (OVCAR-8 ovarian) greater than 100 µM and a TGI (HT29 colon) greater than 100 µM.

Compound C1=CC=C2NCCc3cccc(c3)CCNC3=CC=CC=CC3=NCCCCCCN=C2C=C1 has a TGI (OVCAR-5 ovarian) of 47.8 µM, a TGI (UO-31 renal) of 89.1 µM and a TGI (MALME-3M melanoma) greater than 100 µM. It also gave a TGI (CCRF-CEM leukemia) greater than 100 µM, a TGI (OVCAR-3 ovarian) of 99 µM and a TGI (OVCAR-4 ovarian) of 39 µM. It also gave a TGI (EKVX NSCLC) greater than 100 µM, a TGI (CAKI-1 renal) greater than 100 µM and a TGI (OVCAR-8 ovarian) of 61.6 µM. It also gave a TGI (HT29 colon) greater than 100 µM.

Work on O=C1NC(=NCc2ccc(F)cc2)N/C1=C\c1ccccc1Cl yielded a TGI (OVCAR-5 ovarian) of 41 µM, a TGI (MALME-3M melanoma) of 41.8 µM and a TGI (A498 renal) of 34 µM. The TGI (OVCAR-3 ovarian) was 32.6 µM, the TGI (OVCAR-4 ovarian) was 74.3 µM and the TGI (EKVX NSCLC) was 58.2 µM. For the same compound, the TGI (CAKI-1 renal) was 70.8 µM, the TGI (OVCAR-8 ovarian) was 29.3 µM and the TGI (HT29 colon) was 29.5 µM.

CCCCC(=O)c1c(O)ccc2c(C)cc(=O)oc12 gave a TGI (OVCAR-5 ovarian) greater than 100 µM, a TGI (UO-31 renal) greater than 100 µM and a TGI (MALME-3M melanoma) greater than 100 µM. For the same compound, the TGI (A498 renal) was greater than 100 µM, the TGI (CCRF-CEM leukemia) was greater than 100 µM and the TGI (OVCAR-3 ovarian) was greater than 100 µM. The TGI (OVCAR-4 ovarian) was greater than 100 µM, the TGI (EKVX NSCLC) was greater than 100 µM and the TGI (CAKI-1 renal) was greater than 100 µM. For the same compound, the TGI (OVCAR-8 ovarian) was greater than 100 µM and the TGI (HT29 colon) was greater than 100 µM.
